Experimental data from the NIST ThermoML archive (doi:10.1021/je400274f).
Values joined by “and” are separate entries in the source; they are usually repeats but may differ in a detail not shown here. Equal entries are not always repeated. ± gives the expanded uncertainty stated by the source.

Settings: 101.33 kPa, Liquid; for viscosity: Concentric cylinders viscometry; for speed of sound: Pulse-echo method; for mass density: Vibrating tube method

| Compound | viscosity (283.15 K) | speed of sound (283.15 K) | mass density (283.15 K) | viscosity (293.15 K) | speed of sound (293.15 K) | mass density (293.15 K) | viscosity (303.15 K) | speed of sound (303.15 K) | mass density (303.15 K) | viscosity (313.15 K) | speed of sound (313.15 K) | mass density (313.15 K) | viscosity (323.15 K) | speed of sound (323.15 K) | mass density (323.15 K) | viscosity (333.15 K) | mass density (333.15 K) | viscosity (343.15 K) | mass density (343.15 K) | viscosity (353.15 K) | also measured |
| --- | --- | --- | --- | --- | --- | --- | --- | --- | --- | --- | --- | --- | --- | --- | --- | --- | --- | --- | --- | --- | --- |
| CCCCCCC(C)C [2-methyloctane] | 0.776 ± 0.017 mPa·s | 1242.2 ± 1.5 m/s | 723.2 ± 0.5 kg/m3 and 723.2 ± 0.3 kg/m3 | 0.676 ± 0.015 mPa·s | 1201.3 ± 1.5 m/s | 715.4 ± 0.3 kg/m3 and 715.3 ± 0.4 kg/m3 | 0.594 ± 0.013 mPa·s | 1160.7 ± 1.5 m/s | 707.6 ± 0.3 kg/m3 and 707.4 ± 0.4 kg/m3 | 0.499 ± 0.011 mPa·s | 1120.7 ± 1.5 m/s | 699.6 ± 0.3 kg/m3 and 699.4 ± 0.4 kg/m3 | 0.47 ± 0.011 mPa·s | 1081.2 ± 1.5 m/s | 691.6 ± 0.4 kg/m3 and 691.4 ± 0.4 kg/m3 | 0.422 ± 0.01 mPa·s | 683.3 ± 0.4 kg/m3 | 0.381 ± 0.009 mPa·s | 675.1 ± 0.4 kg/m3 | 0.345 ± 0.008 mPa·s | mass density (353.15 K): 666.7 ± 0.4 kg/m3; viscosity (363.15 K): 0.315 ± 0.008 mPa·s; mass density (363.15 K): 658.2 ± 0.4 kg/m3; viscosity (373.15 K): 0.288 ± 0.008 mPa·s; mass density (373.15 K): 649.7 ± 0.5 kg/m3 |
| CCCCCCCCCCCCCC(C)C [2-methylpentadecane] | 4.6 ± 0.29 mPa·s | 1378.7 ± 6.1 m/s | 782.2 ± 4.9 kg/m3 and 781.8 ± 4.9 kg/m3 | 3.52 ± 0.24 mPa·s | 1341 ± 6.1 m/s | 774.9 ± 4.9 kg/m3 and 775 ± 4.9 kg/m3 | 2.77 ± 0.16 mPa·s | 1303.8 ± 6.1 m/s | 767.9 ± 4.8 kg/m3 and 768 ± 4.8 kg/m3 | 2.24 ± 0.16 mPa·s | 1267.3 ± 6.1 m/s | 761 ± 4.7 kg/m3 | 1.85 ± 0.11 mPa·s | 1231.6 ± 6.1 m/s | 754.1 ± 4.6 kg/m3 and 754 ± 4.6 kg/m3 | 1.55 ± 0.08 mPa·s | 747 ± 4.5 kg/m3 | 1.33 ± 0.06 mPa·s | 740 ± 4.5 kg/m3 | 1.14 ± 0.07 mPa·s | mass density (353.15 K): 733 ± 4.4 kg/m3; viscosity (363.15 K): 1 ± 0.05 mPa·s; mass density (363.15 K): 726 ± 4.3 kg/m3; viscosity (373.15 K): 0.88 ± 0.03 mPa·s; mass density (373.15 K): 718.9 ± 4.2 kg/m3 |
| CCCCCCCCC(C)CC (stereo not given) [3-methylundecane] | 1.73 ± 0.03 mPa·s | 1330.2 ± 2.3 m/s | 758.6 ± 0.6 kg/m3 and 758.3 ± 0.6 kg/m3 | 1.43 ± 0.03 mPa·s | 1291 ± 2.3 m/s | 751.1 ± 0.6 kg/m3 and 751.3 ± 0.6 kg/m3 | 1.2 ± 0.02 mPa·s | 1252.2 ± 2.3 m/s | 743.9 ± 0.6 kg/m3 and 744 ± 0.6 kg/m3 | 1.01 ± 0.02 mPa·s | 1214 ± 2.3 m/s | 736.6 ± 0.6 kg/m3 and 736.7 ± 0.6 kg/m3 | 0.883 ± 0.021 mPa·s | 1176.6 ± 2.3 m/s | 729.3 ± 0.6 kg/m3 | 0.771 ± 0.019 mPa·s | 721.9 ± 0.6 kg/m3 | 0.68 ± 0.017 mPa·s | 714.4 ± 0.6 kg/m3 | 0.605 ± 0.014 mPa·s | mass density (353.15 K): 707 ± 0.6 kg/m3; viscosity (363.15 K): 0.543 ± 0.012 mPa·s; mass density (363.15 K): 699.4 ± 0.6 kg/m3; viscosity (373.15 K): 0.492 ± 0.012 mPa·s; mass density (373.15 K): 691.9 ± 0.6 kg/m3 |
| CCC(C)CCC(C)CC (stereo not given) [3,6-dimethyloctane] | 0.988 ± 0.022 mPa·s | 1277.8 ± 1.7 m/s | 746.6 ± 0.4 kg/m3 and 746.6 ± 0.5 kg/m3 | 0.846 ± 0.018 mPa·s | 1236.7 ± 1.7 m/s | 738.9 ± 0.5 kg/m3 and 738.9 ± 0.4 kg/m3 | 0.733 ± 0.016 mPa·s | 1196.2 ± 1.7 m/s | 731.2 ± 0.5 kg/m3 and 731.1 ± 0.4 kg/m3 | 0.62 ± 0.014 mPa·s | 1156.3 ± 1.9 m/s | 723.5 ± 0.6 kg/m3 and 723.3 ± 0.4 kg/m3 | 0.568 ± 0.014 mPa·s | 1117.2 ± 1.7 m/s | 715.7 ± 0.6 kg/m3 and 715.5 ± 0.4 kg/m3 | 0.506 ± 0.012 mPa·s | 707.6 ± 0.4 kg/m3 | 0.453 ± 0.01 mPa·s | 699.6 ± 0.4 kg/m3 | 0.409 ± 0.01 mPa·s | mass density (353.15 K): 691.5 ± 0.4 kg/m3; viscosity (363.15 K): 0.372 ± 0.01 mPa·s; mass density (363.15 K): 683.3 ± 0.4 kg/m3; viscosity (373.15 K): 0.328 ± 0.008 mPa·s; mass density (373.15 K): 674.9 ± 0.5 kg/m3 |
